The values below come from US20090142395A1, “DEFERASIROX PHARMACEUTICAL COMPOSITIONS” (priority 2007, published 2009).

SMILES strings stand for the structures.

A short description of this data set: Flow properties of co-milled blends, assessed visually. It counts as physicochemical. The conditions noted are these: visual score between 1 and 6, where 6 is a free-flowing powder. As for the experimental part:
Flow properties were assessed visually, and given a score between 1 and 6, where 6 is a free-flowing powder.

Regarding `O=C(O)c1ccc(-n2nc(-c3ccccc3O)nc2-c2ccccc2O)cc1` [Deferasirox raw material, 4-[3,5-bis(2-hydroxyphenyl)-[1,2,4]triazol-1-yl]benzoic acid], the Flow score amounted to 1.
